Active and inactive are the calls of the source. No rule for the calls is given here. Some results are limits rather than exact numbers.

72 compounds from PubChem BioAssay AID435023 (Broad Institute, 2010) can be followed below.

The target in the assay is Protein LANA1 (Human herpesvirus 8 type P (isolate GK18)) (UniProt Q9QR71). The assay can be described thus: disruption of KSHV LANA peptide–nucleosome binding – biochemical, fluorescence polarization, cell-free, retest, dose response (AID 435023).
Chain of Protein LANA1 (Human herpesvirus 8 type P (isolate GK18)) (Q9QR71 whole entry, looked up): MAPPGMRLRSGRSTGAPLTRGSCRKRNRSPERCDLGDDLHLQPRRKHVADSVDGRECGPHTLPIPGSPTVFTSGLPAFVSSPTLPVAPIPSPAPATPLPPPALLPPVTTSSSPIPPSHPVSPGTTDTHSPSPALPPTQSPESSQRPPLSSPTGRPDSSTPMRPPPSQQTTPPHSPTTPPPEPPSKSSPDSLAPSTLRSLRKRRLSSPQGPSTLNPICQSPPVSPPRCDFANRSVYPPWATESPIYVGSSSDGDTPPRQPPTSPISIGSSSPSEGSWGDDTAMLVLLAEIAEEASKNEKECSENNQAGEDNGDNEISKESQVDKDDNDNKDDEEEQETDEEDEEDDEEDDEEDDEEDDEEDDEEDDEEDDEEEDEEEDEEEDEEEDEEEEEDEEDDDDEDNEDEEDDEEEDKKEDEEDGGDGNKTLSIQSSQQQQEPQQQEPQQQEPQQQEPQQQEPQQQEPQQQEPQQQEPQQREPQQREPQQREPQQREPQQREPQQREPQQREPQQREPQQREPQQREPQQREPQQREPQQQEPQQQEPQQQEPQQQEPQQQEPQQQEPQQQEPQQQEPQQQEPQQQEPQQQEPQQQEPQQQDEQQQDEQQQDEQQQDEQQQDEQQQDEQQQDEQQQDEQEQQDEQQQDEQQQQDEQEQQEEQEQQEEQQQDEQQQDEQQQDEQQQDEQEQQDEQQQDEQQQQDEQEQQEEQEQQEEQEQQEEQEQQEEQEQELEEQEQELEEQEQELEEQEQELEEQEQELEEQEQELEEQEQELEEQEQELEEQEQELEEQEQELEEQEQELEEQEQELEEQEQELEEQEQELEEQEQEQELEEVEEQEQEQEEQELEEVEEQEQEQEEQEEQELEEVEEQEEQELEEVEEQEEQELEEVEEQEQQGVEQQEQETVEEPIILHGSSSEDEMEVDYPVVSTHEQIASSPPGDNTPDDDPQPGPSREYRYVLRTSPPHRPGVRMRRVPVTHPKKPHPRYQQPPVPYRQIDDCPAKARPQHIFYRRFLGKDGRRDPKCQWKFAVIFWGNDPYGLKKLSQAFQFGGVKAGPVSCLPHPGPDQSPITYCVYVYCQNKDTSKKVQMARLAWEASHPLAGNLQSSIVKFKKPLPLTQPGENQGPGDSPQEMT
In the case of `CCc1nnc(NS(=O)(=O)c2ccc(N=CC3=C(O)CC(C)(C)CC3=O)cc2)s1`, the EC50 is > 7.5 µM (inactive).
As to `Cc1ccc2oc(=O)c(/C=C(\O)c3ccco3)nc2c1`, the EC50 was > 7.5 µM (inactive).
For `CC1(C)CC(=O)C(C(C#Cc2ccccc2)C2=C(O)CC(C)(C)CC2=O)=C(O)C1` the value was > 7.5 µM (inactive); for `O=C(CC1SC(N2CCCCC2)=NC1=O)Nc1cccc(C(=O)O)c1` (configuration not stated), > 7.5 µM (inactive).
Turning to `Cc1cc(C)nc(SC2CC(=O)N(c3ccc(C)c(C)c3)C2=O)n1` (configuration not stated), the EC50 was > 7.5 µM (inactive).
For `COc1cc([N+](=O)[O-])ccc1N1C(=O)CC(Sc2nccc(C)n2)C1=O` (configuration not stated) the value was > 7.5 µM (inactive).
The value for `COc1ccccc1C1C(C(=O)c2sc(C)nc2C)=C(O)C(=O)N1CCN1CCOCC1` (configuration not stated) was > 7.5 µM (inactive); that for `C=CCOc1ccc(/C(O)=C2/C(=O)C(=O)N(CCCN3CCOCC3)C2c2ccc(OC)cc2)cc1` (configuration not stated) was > 7.5 µM (inactive); that for `O=C(C1=C(O)C(=O)N(Cc2ccccc2)C1c1cccnc1)c1ccco1` (configuration not stated) was > 7.5 µM (inactive).
For `Cc1nc2c(C)cccn2c1/C(O)=C1\C(=O)C(=O)N(CCN(C)C)C1c1ccccc1` (configuration not stated) the value was > 7.5 µM (inactive).
In the case of `CC(=O)C1=C(O)C(=O)N(c2ccc(C(=O)O)cc2)C1c1ccc([N+](=O)[O-])cc1` (configuration not stated), the EC50 is > 7.5 µM (inactive).
In the case of `CCCCc1ccc(N=N/C(C(=O)Nc2ccc(NC(C)=O)cc2OC)=C(/C)O)cc1`, the EC50 was > 7.5 µM (inactive).
The value for `O=C(O)CC1S/C(=N/N=C/c2ccccn2)NC1=O` (configuration not stated) was > 7.5 µM (inactive).
For the compound `COc1ccc(C2=CC(c3cc(OC)c(OC)c(OC)c3)NC(=S)N2)cc1` (configuration not stated), the EC50 was > 7.5 µM (inactive).
For `CC1C2CC(C(CN(C)C)/C2=N/O)C1(C)C` (configuration not stated) the value was > 7.5 µM (inactive); for `Brc1ccc(C2=CC(c3ccco3)n3ncnc3N2)cc1` (configuration not stated), > 7.5 µM (inactive).
The value for `CNC(=O)c1ccc(NC(=O)CC2SC(N3CCCC3)=NC2=O)cc1` (configuration not stated) was > 7.5 µM (inactive).
For `COc1cccc(CNC(=O)c2ccc(NC(=O)CC3SC(N4CCCC4)=NC3=O)cc2)c1` (configuration not stated) the value was > 7.5 µM (inactive); for `O=C(O)C(C/C(=N/O)c1ccc(Br)cc1)P(=O)(c1ccccc1)c1ccccc1` (configuration not stated), > 7.5 µM (inactive); for `COc1ccc(NC2=C(Cl)C(=O)N(c3ccccc3)C2=O)c(OC)c1`, > 7.5 µM (inactive).
For `Oc1c(N=NC(=S)Nc2ccccc2F)c2ccccc2n1Cc1ccc(Cl)cc1`, the EC50 was > 7.5 µM (inactive).
As for `CN(CCOc1ccc(CC2SC(=O)NC2=O)cc1)c1ccccn1` (configuration not stated), the EC50 is > 7.5 µM (inactive).
With `CCOc1cc(C2C3=C(CCCC3=O)Nc3nc(C(=O)OC)nn32)ccc1OC` (configuration not stated), the EC50 is > 7.5 µM (inactive).
The value for `N#Cc1ccccc1/C=N/Nc1nc(-c2ccccc2)c2cc(Cl)ccc2n1` was > 7.5 µM (inactive); that for `COc1ccccc1N1CCN(C2CC(=O)N(c3cccc(Cl)c3)C2=O)CC1` (configuration not stated) was > 7.5 µM (inactive); that for `O=C(CC1SC(N2CCOCC2)=NC1=O)Nc1ccc(Cl)c(C(F)(F)F)c1` (configuration not stated) was > 7.5 µM (inactive).
For `COC(=O)c1ccccc1NC1CC(=O)N(c2c(C)cccc2C)C1=O` (configuration not stated) the value was > 7.5 µM (inactive); for `CC1Cc2cc(/C(O)=C3\C(=O)C(=O)N(Cc4cccnc4)C3c3ccccc3F)ccc2O1` (configuration not stated), > 7.5 µM (inactive); for `Cc1cccc(CC2CC(=O)N(c3ccc(C)cc3Br)C2=O)c1` (configuration not stated), > 7.5 µM (inactive).
For `COc1ccc(CCn2c(O)c(C=Nc3ccc(F)cc3)c(=O)[nH]c2=O)cc1OC` the value was > 7.5 µM (inactive).
Take `Oc1ccc2nnc3c(Br)cnn3c2c1`: the EC50 was > 7.5 µM (inactive).
Consider `CCN(CC)CCN1C(=O)C(O)=C(C(=O)c2ccc(C)o2)C1c1ccccn1` (configuration not stated), for which the EC50 was > 7.5 µM (inactive).
With `C/C(=N\Nc1nncc2ccccc12)c1ccc(O)cc1`, the EC50 was > 7.5 µM (inactive).
For `Cn1[nH]c(-c2ccccc2)c(/C=N/O)c1=O` the value was > 7.5 µM (inactive); for `C/C(=N\N=C1/NC(=O)C(C)S1)c1ccc([N+](=O)[O-])cc1` (configuration not stated), > 7.5 µM (inactive).
`CN1CC=C2C(C#N)=C(N)C(C#N)(C#N)[C@H](c3ccoc3)[C@H]2C1`: the EC50 is > 7.5 µM (inactive).
The value for `O=c1c(/C=C(\O)c2ccc(F)cc2)nc2ccccc2n1-c1ccccc1` was > 7.5 µM (inactive).
For `CCOc1ccc(N2C(=O)C3ON(c4ccccc4)C(c4ccco4)C3C2=O)cc1` (configuration not stated) the value was > 7.5 µM (inactive).
For `CC1=NCCc2c1[nH]c1cc(O)ccc21` the value was 2.37 µM; for `CC1(C)C(C#N)=C(N)OC2=C1C(=O)CCC2`, > 7.5 µM (inactive).
As to `NC(=O)Cn1c(O)c(N=NC(=O)CNC(=O)/C=C/c2ccccc2)c2ccccc21`, the EC50 is > 7.5 µM (inactive).
For `O=C1CCCC(O)=C1C=Nc1ccc(O)cc1` the value was > 7.5 µM (inactive); for `Cc1ccc(N2C(=O)[C@@H]3C(C(=O)CN4C(=O)c5ccccc5C4=O)=NN[C@@H]3C2=O)c(C)c1`, > 7.5 µM (inactive); for `COc1ccc(N/C=C/C(=O)c2ccc(Cl)cc2)cc1`, > 7.5 µM (inactive).
`CC(=O)c1cccc(OC(=O)C2=CC=CN3CCS(=O)(=O)N=C23)c1`: the EC50 is > 7.5 µM (inactive).
As for `O=[N+]([O-])c1cccc(/C=N/Nc2nccnc2Cl)c1`, the EC50 is > 7.5 µM (inactive).
Regarding `Cc1ccc(NC2=C([N+](=O)[O-])CS(=O)(=O)C2)cc1`, the EC50 was > 7.5 µM (inactive).
The value for `COc1ccc(C2C(C(=O)c3cccs3)=C(O)C(=O)N2c2nncs2)cc1` (configuration not stated) was > 7.5 µM (inactive); that for `CC1OC(OCC2OC(Oc3c(-c4ccc(O)cc4)oc4cc(O)cc(O)c4c3=O)C(O)C(O)C2O)C(O)C(O)C1O` (configuration not stated) was > 7.5 µM (inactive); that for `COc1ccccc1N1C(=O)[C@@H]2C(C(=O)CN3C(=O)c4ccccc4C3=O)=NN[C@@H]2C1=O` was > 7.5 µM (inactive).
Take `COc1ccc(N/C=C/C(=O)c2cc(OC)c(OC)c(OC)c2)cc1`: the EC50 is > 7.5 µM (inactive).
The value for `CCn1c(O)c(/C=C2\C=NN=C2c2ccccc2)sc1=S` was > 7.5 µM (inactive).
`O=C1CC(c2ccc(F)cc2)CC(O)=C1C=NCCN1CCNCC1` (configuration not stated): the EC50 is > 7.5 µM (inactive).
For `COc1ccc(C(=O)/C=C/Nc2ccc(S(=O)(=O)Nc3cc(OC)nc(OC)n3)cc2)c(OC)c1` the value was > 7.5 µM (inactive); for `CCOc1cccc(C2C(C(=O)c3ccc(C)o3)=C(O)C(=O)N2c2nccs2)c1` (configuration not stated), > 7.5 µM (inactive).
Turning to `CCOC(=O)C1=C(CSc2nc(-c3ccccc3)ccc2C#N)OC(N)=C(C#N)C1c1ccccc1` (configuration not stated), the EC50 is > 7.5 µM (inactive).
For `C/C(=N/NC(=O)c1ccncc1)c1cc2ccc(O)cc2oc1=O` the value was > 7.5 µM (inactive); for `Cc1ccc(/C(O)=C/c2nc3cc(C)ccc3oc2=O)cc1`, 5.84 µM; for `CC(C)n1c(O)c(/C=C2\C=NN=C2c2ccccc2)sc1=S`, > 7.5 µM (inactive).
As for `COC(=O)CC1=C(C(=O)OC)C(c2cc(OC)c(OC)cc2OC)C(C#N)=C(N)O1` (configuration not stated), the EC50 is > 7.5 µM (inactive).
For `CCC/C=N/O`, the EC50 is > 7.5 µM (inactive).
Take `CC1(C)C(c2cccs2)=[N+]([O-])C2(CCCCC/C2=N\O)N1O` (configuration not stated): the EC50 was > 7.5 µM (inactive).
Turning to `C/C(=N\Nc1ccc(Cl)c(C(=O)O)c1)c1ccc(N2CCOCC2)cc1`, the EC50 was > 7.5 µM (inactive).
The value for `CCN(CC)CCCN1C(=O)C(=O)/C(=C(/O)c2ccccc2)C1c1cc(OC)ccc1OC` (configuration not stated) was > 7.5 µM (inactive); that for `COc1ccc(C2C(C(=O)c3ccco3)=C(O)C(=O)N2CC2CCCO2)cc1OC` (configuration not stated) was > 7.5 µM (inactive); that for `COc1ccc(CC2C(=O)N(c3ccccc3)C(=O)N(c3ccccc3)C2=O)c(OC)c1` was > 7.5 µM (inactive).
For `COc1cc(/C=N/O)c(Br)cc1OCC(=O)Nc1ccccc1C` the value was > 7.5 µM (inactive); for `N#CC(C#N)=C/C(C#N)=C(/N)N1CCN(c2ccc(Cl)cc2)CC1`, > 7.5 µM (inactive).
`O=C(/C=C/Nc1ccccc1)c1ccc(Cl)cc1Cl`: the EC50 was > 7.5 µM (inactive).
For `CC[C@H]1c2[nH]c3ccccc3c2C[C@H]2C(=O)N(c3ccc(F)cc3)C(=O)N21` the value was > 7.5 µM (inactive); for `O=C(C1=C(O)C(=O)N(CCCN2CCOCC2)C1c1ccccn1)c1cc2ccccc2o1` (configuration not stated), > 7.5 µM (inactive); for `CCNc1nc(NCC)nc(N/N=C/c2ccc(N(C)C)cc2)n1`, > 7.5 µM (inactive).
